{"source": "paper PMC2773443", "about": "(Biochemistry, 2009)", "key": {"[1]": {"biological_target": "T1, Bh0493, uronate isomerase from Bacillus halodurans (Halalkalibacterium halodurans, UniProt Q9KFI6)", "T1 sequence (Q9KFI6 1-427)": "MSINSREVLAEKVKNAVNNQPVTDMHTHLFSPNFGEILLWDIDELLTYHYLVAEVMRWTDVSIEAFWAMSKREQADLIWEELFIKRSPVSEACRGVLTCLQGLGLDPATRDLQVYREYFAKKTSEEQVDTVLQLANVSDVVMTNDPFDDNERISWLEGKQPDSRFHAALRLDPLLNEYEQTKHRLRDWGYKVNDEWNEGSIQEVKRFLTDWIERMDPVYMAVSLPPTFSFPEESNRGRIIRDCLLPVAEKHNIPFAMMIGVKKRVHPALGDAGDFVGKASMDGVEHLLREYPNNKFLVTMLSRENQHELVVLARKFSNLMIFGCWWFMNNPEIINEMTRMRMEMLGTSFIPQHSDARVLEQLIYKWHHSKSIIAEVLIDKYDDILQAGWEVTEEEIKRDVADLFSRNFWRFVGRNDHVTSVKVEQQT", "assay": "inhibition kinetics, slope inhibition constant", "assay_type": "biochemical"}, "[2]": {"biological_target": "T2, uronate isomerase (URI) from E. coli (Escherichia coli, UniProt P0A8G3)", "T2 sequence (P0A8G3 1-470)": "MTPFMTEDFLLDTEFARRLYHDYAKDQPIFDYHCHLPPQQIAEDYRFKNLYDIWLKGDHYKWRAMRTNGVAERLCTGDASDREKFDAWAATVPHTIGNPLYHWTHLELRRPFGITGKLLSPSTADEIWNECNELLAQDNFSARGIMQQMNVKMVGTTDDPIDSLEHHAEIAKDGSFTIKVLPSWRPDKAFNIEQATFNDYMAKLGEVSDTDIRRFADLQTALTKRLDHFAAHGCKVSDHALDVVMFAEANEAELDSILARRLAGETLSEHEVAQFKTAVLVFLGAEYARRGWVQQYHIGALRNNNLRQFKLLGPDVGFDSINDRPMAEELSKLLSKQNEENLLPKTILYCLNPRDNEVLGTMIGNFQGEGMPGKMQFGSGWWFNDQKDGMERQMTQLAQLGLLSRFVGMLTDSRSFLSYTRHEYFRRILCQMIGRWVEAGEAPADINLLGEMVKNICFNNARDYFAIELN", "assay": "inhibition kinetics, slope inhibition constant", "assay_type": "biochemical"}, "[3]": {"biological_target": "T1, Bh0493, uronate isomerase from Bacillus halodurans", "assay": "X-ray crystal structure, […] Å", "assay_type": "binding", "conditions": "Zn2+, active site; 40 mM ligand; pH 6.0"}, "[4]": {"biological_target": "T1, Bh0493, uronate isomerase from Bacillus halodurans", "assay": "X-ray crystal structure, […] Å", "assay_type": "binding", "conditions": "Zn2+, active site; 40 mM ligand; pH 8.5 (form 1), pH 6.0 (form 2)"}}}
{"smiles": "O=C(O)[C@H]1OC[C@H](O)[C@@H](O)[C@@H]1O", "note": "[IV, 2,6-Anhydro-L-gulonic acid]", "values": [{"measurement": "Ki", "setting": "[1]", "value": "24 ± 2", "unit": "µM"}, {"measurement": "Ki", "setting": "[2]", "value": "45 ± 4", "unit": "µM"}]}
{"smiles": "O=C(O)[C@H]1OC(O)[C@H](O)[C@@H](O)[C@@H]1O", "note": "(stereo partly drawn) [I, D-glucuronate]", "values": [{"measurement": "X-ray crystal structure, 2.1 Å", "setting": "[3]", "value": "In the complex with D-glucuronate, the substrate is bound in the open chain configuration."}]}
{"smiles": "O=C(O)[C@@H](O)C(O)[C@H](O)C(=O)O", "note": "[III, D-arabinarate]", "values": [{"measurement": "X-ray crystal structure, 2.2 Å (two crystal forms)", "setting": "[4]", "value": "two inhibitors that mimic the proposed cis-enediol(ate) intermediate, D-arabinarate (III) and its hydroxamate derivative (II)"}]}
